The values that follow come from patent EP4692090A1 (Shanghai Fosun Pharmaceutical (Group) Co., Ltd., priority 2023, dated 2024).

A value given as a limit tells only on which side of the number the result lay.

The term IC50 denotes the concentration at which inhibition is half-maximal.

One test concerns LoVo cells. Kind of test: LoVo cell proliferation assay (CellTiter-Glo). The settings on record: Homo sapiens, LoVo, 120 h, LoVo cells, 2,000 cells per well, 5 days incubation, CellTiter-Glo; maximum concentration 10 µM, 9 concentrations; read-out: LoVo IC50. Format: cell-based. The procedure: Test Example 2: LoVo cell proliferation assay
LoVo (ATCC, #CRL-229) cells in logarithmic growth phase were digested, counted, and plated into 96-well cell culture plates at 2,000 cells per well. The plates containing cells were incubated overnight at 37°C in a 5% CO2 incubator, and then test compounds with 3-fold gradient dilutions (maximum concentration: 10 µM, 9 concentrations) were added. DMSO was used as a blank control. After the LoVo cells containing the compounds or DMSO were incubated for an additional 5 days, an equal volume of CellTiter-Glo reagent (Promega, #7573) was added. After incubation at room temperature for 30 minutes, chemiluminescence was read using an Envision 2105 (PerkinElmer). The cell proliferation inhibition rate (%) for wells treated with each concentration of the compounds was calculated using the following formula. Then, with compound concentration as the horizontal axis and cell proliferation inhibition rate (%) as the vertical axis, GraphPad software was used to plot the data and determine the IC50 values of the test compounds. The results are shown in Table 2, wherein the IC50 ranges are defined as follows: A: ≤ 100 nM; 1000 nM ≥ B > 100 nM; C > 1000 nM.
Cell proliferation inhibition (%) = (1 - luminescence value of compound-treated group / average luminescence value of DMSO blank control group) × 100. Table 2. Inhibitory effect of compounds on LoVo growth
On to `CC1c2cc(N3CCOC[C@H]3C)nc3c2c(nn3-c2cc[nH]n2)CCN1CC(F)F` (single isomer, unassigned) [Compound 45A], for which the concentration for half-maximal inhibition (IC50) lay within 100 to 1000 nM.

As for `CC1c2cc(N3CCOC[C@H]3C)nc3c2c(nn3-c2cc[nH]n2)CCN1S(C)(=N)=O` (single isomer, unassigned) [Compound 46A], the IC50 lay in the range of 100 to 1000 nM.

On to `CC1c2cc(N3CCOC[C@H]3C)nc3c(-c4cc[nH]n4)nn(c23)CCN1C` (single isomer, unassigned) [Compound 59A], for which the IC50 is 100 to 1000 nM.

In the case of `C[C@@H]1COCCN1c1cc2c3c(n1)c(-c1cc[nH]n1)nn3CCC2(O)C1CCOCC1` (single isomer, unassigned) [Compound 73A], the IC50 is > 1000 nM.

Turning to `C[C@@H]1COCCN1c1cc2c3c(n1)c(-c1cc[nH]n1)nn3CCC2(O)c1cnn(C)c1` (single isomer, unassigned) [Compound 74A], the 50% inhibitory concentration (IC50) is > 1000 nM.

As to `CC(C)C1c2cc(N3CCOC[C@H]3C)nc3c2c(nn3-c2cc[nH]n2)CCN1S(C)(=O)=O` (single isomer, unassigned) [Compound 140A], the IC50 was < 100 nM.

For the compound `C[C@@H]1COCCN1c1cc2c3c(nn(-c4cc[nH]n4)c3n1)CCN(S(=O)(=O)C(F)(F)F)C2` [Compound 25, (R)-4-(2-(1H-pyrazol-3-yl)-7-((trifluoromethyl)sulfonyl)-6,7,8,9-tetrahydro-2H-1,2,3,7-tetraazabenzo[cd]azulen-4-yl)-3-methylmorpholine], the IC50 was < 100 nM.

Take `C[C@@H]1COCCN1c1cc2c3c(nn(-c4cc[nH]n4)c3n1)CCN(S(=O)(=O)C1COC1)C2` [Compound 26, (R)-3-methyl-4-(7-(oxetan-3-ylsulfonyl)-2-(1H-pyrazol-3-yl)-6,7,8,9-tetrahydro-2H-1,2,3,7-tetraazabenzo[cd]azulen-4-yl)morpholine]: the IC50 fell in the range of 100 to 1000 nM.

On to `CC1c2cc(N3CCOC[C@H]3C)nc3c2c(nn3-c2cc[nH]n2)CCN1c1cnn(C)c1` (stereo partly drawn) [Compound 43, (3R)-3-methyl-4-(6-methyl-7-(1-methyl-1H-pyrazol-4-yl)-2-(1H-pyrazol-3-yl)-6,7,8,9-tetrahydro-2H-1,2,3,7-tetraazabenzo[cd]azulen-4-yl)morpholine], for which the IC50 fell in the range of 100 to 1000 nM.

Turning to `C[C@@H]1COCCN1c1cc2c3c(n1)c(-c1cc[nH]n1)nn3CCNC2` [Compound 51, (R)-4-(2-(1H-pyrazol-3-yl)-6,7,8,9-tetrahydro-1,3,7,9a-tetraazabenzo[cd]azulen-4-yl)-3-methylmorpholine], the concentration for half-maximal inhibition (IC50) was in the range of 100 to 1000 nM.

Turning to `CC1c2cc(N3CCOC[C@H]3C)nc3c(-c4cc[nH]n4)nn(c23)CCN1S(C)(=O)=O` (stereo partly drawn) [Compound 60, (3R)-3-methyl-4-(6-methyl-7-(methylsulfonyl)-2-(1H-pyrazol-3-yl)-6,7,8,9-tetrahydro-1,3,7,9a-tetraazabenzo[cd]azulen-4-yl)morpholine], the 50% inhibitory concentration (IC50) fell in the range of 100 to 1000 nM.

For `C[C@@H]1COCCN1c1cc2c3c(n1)c(-c1cc[nH]n1)nn3CCN2S(C)(=O)=O` [Compound 64], the 50% inhibitory concentration (IC50) was 100 to 1000 nM.

Consider `C[C@@H]1COCCN1c1cc2c3c(n1)c(-c1cc[nH]n1)nn3CCC2(C)O` (stereo partly drawn) [Compound 71, 6-methyl-4-((R)-3-methylmorpholino)-2-(1H-pyrazol-3-yl)-7,8-dihydro-6H-pyrazolo[4,5,1-ij][1, 7]naphthyridin-6-ol], for which the 50% inhibitory concentration (IC50) was 100 to 1000 nM.

As for `C[C@@H]1COCCN1c1cc2c3c(n1)c(-c1cc[nH]n1)nn3CCC(=O)N2[C@@H](C)CC(F)(F)F` [Compound 111A, 4-((R)-3-methylmorpholino)-2-(1H-pyrazol-3-yl)-6-((S)-4,4,4-trifluorobutan-2-yl)-8,9-dihydro-1,3,6,9a-tetraazabenzo[cd]azulene-7(6H)-one], the concentration for half-maximal inhibition (IC50) lay in the range of 100 to 1000 nM.

`C[C@@H]1COCCN1c1cc2c3c(n1)c(-c1cc[nH]n1)nn3CCC(=O)N2[C@H](C)CC(F)(F)F` [Compound 111B, 4-((R)-3-methylmorpholino)-2-(1H-pyrazol-3-yl)-6-((R)-4,4,4-trifluorobutan-2-yl)-8,9-dihydro-1,3,6,9a-tetraazabenzo[cd]azulene-7(6H)-one]: the IC50 fell in the range of 100 to 1000 nM.

Turning to `C[C@@H]1COCCN1c1cc2c3c(nn(-c4cc[nH]n4)c3n1)CCN(S(=O)(=O)C1CC1)C2C1CC1` (stereo partly drawn) [Compound 143, (3R)-4-(6-cyclopropyl-7-(cyclopropylsulfonyl)-2-(1H-pyrazol-3-yl)-6,7,8,9-tetrahydro-2H-1,2,3,7-tetraazabenzo[cd]-azulen-4-yl)-3-methylmorpholine], the IC50 is 100 to 1000 nM.

As for `C[C@@H]1COCCN1c1cc2c3c(nn(-c4cc[nH]n4)c3n1)CCOC2C(F)F` (stereo partly drawn) [Compound 148, 6-(difluoromethyl)-4-((R)-3-methylmorpholino)-2-(1H-pyrazol-3-yl)-2,6,8,9-tetrahydro-7-oxa-1,2,3-triazabenzo[cd]azulene], the IC50 is < 100 nM.

For `CC1c2cc(N3CCOC[C@H]3C)nc3c2c(nn3-c2cc[nH]n2)CCN1S(N)(=O)=O` (stereo partly drawn) [Compound 150, 6-methyl-4-((R)-3-methylmorpholino)-2-(1H-pyrazol-3-yl)-2,6,8,9-tetrahydro-7H-1,2,3,7-tetraazabenzene[cd]azulene-7-sulfonamide], the IC50 lay in the range of 100 to 1000 nM.

The test is the same for the next values; noted with them: Homo sapiens, LoVo, 120 h, read-out: LoVo IC50 (nM), LoVo cells, 2,000 cells per well, 5 days incubation, CellTiter-Glo; maximum concentration 10 µM, 9 concentrations.
`C[C@@H]1COCCN1c1cc2c3c(nn(-c4cc[nH]n4)c3n1)CCC(=O)N2C12CC(C1)C2` [Compound 76, (R)-6-(bicyclo[1.1.1]pentan-1-yl)-4-(3-methylmorpholinyl)-2-(1H-pyrazol-3-yl)-2,6,8,9-tetrahydro-7H-1,2,3,6-tetraazabenzo[cd]azulene-7-one]: the IC50 is < 100 nM.

As to `C[C@@H]1COCCN1c1cc2c3c(nn(-c4cc[nH]n4)c3n1)CCC(=O)N2C1(CF)CC1` [Compound 80, (R)-6-(1-(fluoromethyl)cyclopropyl)-4-(3-methylmorpholinyl)-2-(1H-pyrazol-3-yl)-2,6,8,9-tetrahydro-7H-1,2,3,6-tetraazabenzo[cd]azulene-7-one], the IC50 is < 100 nM.

Staying with this test, now noted: LoVo cells, 2,000 cells per well, 5 days incubation, CellTiter-Glo; maximum concentration 10 µM, 9 concentrations; read-out: LoVo IC50.
Regarding `CC1c2cc(N3CCOC[C@H]3C)nc3c2c(nn3-c2cc[nH]n2)CCN1CC1COC1` (single isomer, unassigned) [Compound 44B], the IC50 lay within 100 to 1000 nM.

In the case of `CC1c2cc(N3CCOC[C@H]3C)nc3c2c(nn3-c2cc[nH]n2)CCN1CC(F)F` (single isomer, unassigned) [Compound 45B], the IC50 lay within 100 to 1000 nM.

Regarding `CC1c2cc(N3CCOC[C@H]3C)nc3c2c(nn3-c2cc[nH]n2)CCN1S(C)(=N)=O` (single isomer, unassigned) [Compound 46B], the IC50 lay within 100 to 1000 nM.

Regarding `CC1c2cc(N3CCOC[C@H]3C)nc3c2c(nn3-c2cc[nH]n2)CCN1S(C)(=N)=O` (single isomer, unassigned) [Compound 46D], the IC50 lay in the range of 100 to 1000 nM.

For `CC1c2cc(N3CCOC[C@H]3C)nc3c(-c4cc[nH]n4)nn(c23)CCN1C` (single isomer, unassigned) [Compound 59B], the IC50 was in the range of 100 to 1000 nM.

Take `C[C@@H]1COCCN1c1cc2c3c(n1)c(-c1cc[nH]n1)nn3CCC2(O)C1CCOCC1` (single isomer, unassigned) [Compound 73B]: the IC50 is > 1000 nM.

As to `C[C@@H]1COCCN1c1cc2c3c(n1)c(-c1cc[nH]n1)nn3CCC2(O)c1cnn(C)c1` (single isomer, unassigned) [Compound 74B], the IC50 was > 1000 nM.

On to `CC(C)C1c2cc(N3CCOC[C@H]3C)nc3c2c(nn3-c2cc[nH]n2)CCN1S(C)(=O)=O` (single isomer, unassigned) [Compound 140B], for which the IC50 fell in the range of 100 to 1000 nM.
